Results as given in paper PMC8069832, “New Amides and Phosphoramidates Containing Selenium: Studies on Their Cytotoxicity and Antioxidant Activities in Breast Cancer” (Antioxidants, 2021).
Read-outs that look alike come from different tables or passages of the source.

Tests used:
MCF-7 = assay: cells; conditions: Homo sapiens, MCF7, 48 h; for activity at 10 µM: read-out: Cell growth (%) MCF-7; for GI50: read-out: GI50 MCF-7, 48 h, average ± SEM; for CC50: read-out: LC50 MCF-7; for IC (TGI): read-out: TGI MCF-7
CCRF-CEM = assay: cells; conditions: Homo sapiens, 48 h; for activity at 10 µM: read-out: Cell growth (%) CCRF-CEM; for GI50: read-out: GI50 CCRF-CEM; for CC50: read-out: LC50 CCRF-CEM; for IC (TGI): read-out: TGI CCRF-CEM
HT-29 = assay: cells; conditions: Homo sapiens, HT-29, 48 h; for activity at 10 µM: read-out: Cell growth (%) HT-29; for GI50: read-out: GI50 HT-29; for CC50: read-out: LC50 HT-29; for IC (TGI): read-out: TGI HT-29
HTB-54 = assay: cells; assay type: cell-based; conditions: Homo sapiens; for GI50: read-out: GI50 HTB54; for CC50: read-out: LC50 HTB54; for IC (TGI): read-out: TGI HTB54
Experimental: (§1) Cell lines were provided by the European Collection of Cell Cultures (ECACC) or by the American Type Culture Collection (ATCC). Seven cell lines were used: MCF-7 (breast adenocarnicoma), 184B5 (nonmalignant, mammary gland derived), CCRF-CEM (lymphoblastic leukemia), HT-29 (colon carcinoma), HTB-54 (lung carcinoma), BEAS-2B (nonmalignant, derived from the bronchial epithelium) and PC-3 (prostate carcinoma). MCF-7, CCRF-CEM, HT-29, HTB-54, BEAS-2B and PC-3 cell lines were grown in RPMI medium (Gibco) supplemented with 10% fetal bovine serum (FBS; Gibco), 100 units/mL penicillin and […] streptomycin (Gibco). 184B5 cells were grown in DMEM/F12 medium supplemented with 5% FBS, 1 × ITS (Lonza), 100 nM hydrocortisone (Aldich), 2 mM sodium pyruvate (Lonza), 20 ng/mL EGF (Sigma-Aldrich), 0.3 nM trans-retinoic acid (Sigma-Aldrich), 100 units/mL penicillin and […] streptomycin. Cells were maintained at 37 °C and 5% CO2.
(§2) The cytotoxic effect of each substance was tested by the MTT method. Each compound was initially dissolved in DMSO at a concentration of 0.01 M, and serial dilutions were prepared with nonsupplemented medium. The cytotoxic effect of each compound was tested at 50 and 10 µM as a first screening. […]
(§3) A total of 1 × 10^4 cells/well in 96-well plates were treated with increasing concentrations of the corresponding compounds for 48 h at 37 °C in a humidified atmosphere containing 5% CO2. Then, cells were incubated with 50 µL of MTT (2 mg/mL stock) for 4 h. The medium was then removed by aspiration, and the formazan crystals were dissolved in […] of DMSO. […] Data were obtained from at least 3 independent experiments performed in quadruplicate. The standard error of the means (SEM) for the cytotoxic parameters was calculated applying the standard deviation formula to the mean values of each parameter for the three independent experiments performed.
(§4) . Cisplatin was used as a standard drug. […]. […] The presence of electron-withdrawing groups (-NO2, -CF3, -Cl) in the phenyl ring favored the cytotoxic activity in the amides, but in the phosphoramidates, the best results were obtained for aliphatic chains methoxy (II.1b, II.2b) and ethoxy (II.1d, II.2d). […].

PC-3 = assay: cells; assay type: cell-based; conditions: Homo sapiens; for GI50: read-out: GI50 PC-3; for LC50: read-out: LC50 PC-3; for IC (TGI): read-out: TGI PC-3
Experimental: as §1, §2, §3, §4

[1] = MTT cytotoxicity in nonmalignant mammary gland derived cells; assay type: cell-based; conditions: human
Experimental: as §1, §2, §3, §4
(§5) The lack of selectivity toward cancerous cells is one of the major issues during the discovery and development of new anticancer agents. Therefore, we evaluated the cytotoxic activity of our compounds against two cell lines derived from nonmalignant breast tissue (184B5) and no malignant bronchial epithelium (BEAS-2B) (Table 2). […].

184B5 = assay: as above; assay type: cell-based; conditions: for GI50 / IC (TGI): Homo sapiens, 184B5, nonmalignant cells, 48 h; for GI50: read-out: GI50 184B5; for IC (TGI): read-out: TGI 184B5; for Selectivity index (SI) = GI50 (184B5)/GI50 (MCF-7): breast
Experimental: as §1, §2, §3, §4, §5

[2] = MTT cytotoxicity in nonmalignant bronchial epithelium cells; assay type: cell-based; conditions: human; for LC50 (50% lethal concentration): nonmalignant cells, 48 h, read-out: LC50 BEAS-2B
Experimental: as §1, §2, §3, §4, §5

BEAS-2B = assay: as above; assay type: cell-based; conditions: for GI50 / IC (TGI): Homo sapiens, BEAS-2B, nonmalignant cells, 48 h; for GI50: read-out: GI50 BEAS-2B; for IC (TGI): read-out: TGI BEAS-2B; for Selectivity index (SI) = GI50 (BEAS-2B)/GI50 (HTB-54): lung
Experimental: as §1, §2, §3, §4, §5

[3] = nonmalignant cells, 48 h, read-out: LC50 184B5

## Cc1ccc(OP(=O)(Nc2ccc([Se]C#N)cc2)Oc2ccc(C)cc2)cc1 [II.2g]
MCF-7
  activity at 10 µM: 75.6%
CCRF-CEM
  activity at 10 µM: 108%
HT-29
  activity at 10 µM: 99.1%

## CCOP(=O)(Nc1ccc([Se][Se]c2ccc(NP(=O)(OCC)OCC)cc2)cc1)OCC [II.1d]
HTB-54; HTB-54, 48 h, average ± SEM
  GI50: 5.9 ± 0.3 µM
  CC50: 9.4 ± 0.1 µM
  IC (TGI): 7.7 ± 0.2 µM
PC-3; PC-3, 48 h, average ± SEM
  GI50: 6.4 ± 0.2 µM
  LC50: 35.1 ± 4.9 µM
  IC (TGI): 8.6 ± 0.2 µM
[1]; [3]
  CC50: 8.58 µM
184B5
  GI50: 5.45 µM
  IC (TGI): 7.01 µM
  Selectivity index (SI) = GI50 (184B5)/GI50 (MCF-7): 2.38
[2]
  LC50 (50% lethal concentration): 8.54 µM
BEAS-2B
  GI50: 5.43 µM
  IC (TGI): 6.98 µM
  Selectivity index (SI) = GI50 (BEAS-2B)/GI50 (HTB-54): 0.92
MCF-7
  activity at 10 µM: -57.5%
  GI50: 2.3 ± 0.2 µM
  CC50: 8.8 ± 0.8 µM
  IC (TGI): 4.2 ± 0.3 µM
CCRF-CEM
  activity at 10 µM: -86.7%
  GI50: 0.4 ± 0.2 µM
  CC50: 3.4 ± 0.2 µM
  IC (TGI): 1.7 ± 0.2 µM
HT-29
  activity at 10 µM: -69.8%
  GI50: 1.7 ± 0.1 µM
  CC50: 4.3 ± 0.1 µM
  IC (TGI): 3 ± 0.1 µM

## N#C[Se]c1ccc(NC(=O)c2ccco2)cc1 [I.2h]
HTB-54; HTB-54, 48 h, average ± SEM
  GI50: > 100 µM
  CC50: > 100 µM
  IC (TGI): > 100 µM
PC-3; PC-3, 48 h, average ± SEM
  GI50: > 100 µM
  LC50: > 100 µM
  IC (TGI): > 100 µM
[1]; [3]
  LC50 (50% lethal concentration): > 100 µM
184B5
  GI50: 36.1 µM
  IC (TGI): > 100 µM
  Selectivity index (SI) = GI50 (184B5)/GI50 (MCF-7): 5.66
[2]
  LC50 (50% lethal concentration): > 100 µM
BEAS-2B
  GI50: 8.47 µM
  IC (TGI): 67.3 µM
MCF-7
  activity at 10 µM: 41.6%
  GI50: 7.4 ± 1.9 µM
  CC50: 94.9 ± 4.7 µM
  IC (TGI): 50.4 ± 1.3 µM
CCRF-CEM
  activity at 10 µM: 47.1%
  GI50: 21.8 ± 3.1 µM
  CC50: > 100 µM
  IC (TGI): > 100 µM
HT-29
  activity at 10 µM: 46.7%
  GI50: 42.7 ± 1.2 µM
  CC50: > 100 µM
  IC (TGI): > 100 µM

## CSc1ccc(C(=O)Nc2ccc([Se]C#N)cc2)cc1 [I.2n]
MCF-7
  activity at 10 µM: 69.5%
CCRF-CEM
  activity at 10 µM: 100%
HT-29
  activity at 10 µM: 101%

## O=P(Nc1ccc([Se][Se]c2ccc(NP(=O)(Oc3ccccc3)Oc3ccccc3)cc2)cc1)(Oc1ccccc1)Oc1ccccc1 [II.1c]
MCF-7
  activity at 10 µM: 94%
CCRF-CEM
  activity at 10 µM: 85.2%
HT-29
  activity at 10 µM: 109%

## O=C(Nc1ccc([Se][Se]c2ccc(NC(=O)c3ccco3)cc2)cc1)c1ccco1 [I.1h]
HTB-54; HTB-54, 48 h
  CC50: 76.3 ± 3.6 µM
HTB-54; HTB-54, 48 h, average ± SEM
  GI50: 20.8 ± 2.5 µM
  IC (TGI): 48.6 ± 1.8 µM
PC-3; PC-3, 48 h
  LC50: 65.6 ± 4.1 µM
PC-3; PC-3, 48 h, average ± SEM
  GI50: 2.3 ± 0.3 µM
  IC (TGI): 27.6 ± 2.8 µM
[1]
  LC50 (50% lethal concentration) at 48 h: 74.4 µM
184B5
  GI50: 19.9 µM
  IC (TGI): 47.2 µM
  Selectivity index (SI) = GI50 (184B5)/GI50 (MCF-7): 1.11
[2]
  LC50 (50% lethal concentration) at 48 h: 70.7 µM
BEAS-2B
  GI50: 10.6 µM
  IC (TGI): 40.6 µM
  Selectivity index (SI) = GI50 (BEAS-2B)/GI50 (HTB-54): 0.51
MCF-7
  activity at 10 µM: 63.5%
  GI50: 18 ± 2.3 µM
  CC50: 76.6 ± 2.5 µM
  IC (TGI): 47.3 ± 2.4 µM
CCRF-CEM
  activity at 10 µM: 34.1%
  GI50: 4.1 ± 2.4 µM
  CC50: 72.8 ± 2.9 µM
  IC (TGI): 36.1 ± 1.4 µM
HT-29
  activity at 10 µM: 62.1%
  GI50: 17.4 ± 1.9 µM
  CC50: 74.3 ± 0.7 µM
  IC (TGI): 45.8 ± 1.2 µM

## N#C[Se]c1ccc(NC(=O)c2cccc3ccccc23)cc1 [I.2m]
MCF-7
  activity at 10 µM: 101%
CCRF-CEM
  activity at 10 µM: 70.9%
HT-29
  activity at 10 µM: 101%

## O=C(Nc1ccc([Se][Se]c2ccc(NC(=O)C34CC5CC(CC(C5)C3)C4)cc2)cc1)C12CC3CC(CC(C3)C1)C2 [I.1k]
MCF-7
  activity at 10 µM: 88%
CCRF-CEM
  activity at 10 µM: 90.2%
HT-29
  activity at 10 µM: 97.1%

## O=C(/C=C/c1ccccc1)Nc1ccc([Se][Se]c2ccc(NC(=O)/C=C/c3ccccc3)cc2)cc1 [I.1l]
MCF-7
  activity at 10 µM: 76.7%
CCRF-CEM
  activity at 10 µM: 50%
HT-29
  activity at 10 µM: 93%

## N#C[Se]c1ccc(NP(=O)(Oc2ccccc2)Oc2ccccc2)cc1 [II.2c]
MCF-7
  activity at 10 µM: 114%
CCRF-CEM
  activity at 10 µM: 81.9%
HT-29
  activity at 10 µM: 116%

## N#C[Se]c1ccc(NP(=O)(Nc2ccccc2)Oc2ccccc2)cc1 (centres unmarked) [II.2f]
MCF-7
  activity at 10 µM: 61.4%
CCRF-CEM
  activity at 10 µM: 22.3%
HT-29
  activity at 10 µM: 64.6%

## COc1ccc(C(=O)Nc2ccc([Se]C#N)cc2)cc1 [I.2c]
MCF-7
  activity at 10 µM: 97.8%
CCRF-CEM
  activity at 10 µM: 76.5%
HT-29
  activity at 10 µM: 93.3%
